The values below come from patent US8258130B2 (Sanofi, priority 2007, dated 2012).

For this test, the target named is human h-PGDS (Homo sapiens, UniProt O60760). Briefly: Enzyme Immunoassay (EIA) method, inhibition of hematopoietic PGD2 synthase. The note with it: EIA assay, PGD2 formed from PGH2 by human h-PGDS. The test is classed as biochemical. Here is the method: Assay 2: Enzyme Immunoassay (EIA) Method
• a. Preparation of 0.1M K2HPO4/KH2PO4 buffer (pH 7.4) • Prepare 0.1 M KH2PO4 from 1M KH2PO4 (Sigma, Cat# P-8709) • Prepare 0.1 M K2HPO4 from powder of K2HPO4 (Fisher, BP363-500) • Mix 0.1 M K2HPO4 with 0.1 M KH2PO4 to adjust pH to 7.4. • b. Preparation of 0.5% γ-globulin • Add 0.1 g of γ-globulin (Sigma, Cat# G-5009) to 20 mL 0.1 M K2HPO4/KH2PO4 buffer (pH 7.4) and make 1-mL/vial aliquots and store in −80° C. • c. Preparation of 100 mM GSH • Add 307 mg of GSH (Sigma, Cat# G-6529) to 10 mL 0.1 M K2HPO4/KH2PO4 buffer (pH 7.4) and store at −80° C. • d. Preparation of Reaction buffer: • 198 mL of 0.1M K2HPO4/KH2PO4 buffer (pH 7.4) • 2 mM GSH—Prepared from 100 mM GSH • 0.4 g Glycerol • 2 mL of 0.5% γ-globulin • Add 0.4 g of glycerol and 2 mL of 0.5% γ-globulin to 198 mL of 0.1 M K2HPO4/KH2PO4 • buffer (pH7.4). • Add 0.4 mL of 100 mM GSH to 19.6 mL reaction buffer before the assay (enough for two 96-well plates). • e. Preparation of FeCl2/citric acid stopping solution: (8 mg/mL FeCl2, 0.1 M citric acid) • Add 40 mg fresh FeCl2 (IGN, Cat# 158046) to 5 mL 0.1 M citric acid (Sigma, Cat# C0759). • f. Preparation of MOX reagent: • 10% EtOH—Add 1 mL of EtOH to 9 mL of ultra pure H2O • Dissolve 0.1 g of methoxyl amine (Cayman, Cat# 400036/) in 10% EtOH (10 mL). • Add 0.82 g of sodium acetate (Cayman, Cat#400037) to MOX solution and dissolve. II. Materials and Method • Dimethylsulfoxide (DMSO; Sigma; Cat# D2650) • Prostaglandin D2-MOX express EIA kit (Caymen Chemical, Catalog No. 500151)
Before the assay, cool down 10 mL of acetone in polypropylene tubes and empty 96 well plates in ice. All the procedures except compound dilution are performed on ice.
• 1. Dilute compound in DMSO
• 2. Dilute 2 μL of each above concentration of compound to 38 μL of reaction buffer in 96-well plates and mix. IV. Enzyme and Substrate Solution Preparation • 1 Preparation of 0.39 ng/μL enzyme solution (0.35 ng/μL at final after compound addition). • Mix 4 μL of 4 mg/mL human h-PGDS with 396 μL of reaction buffer (to give enzyme concentration 40 μg/mL). Add 46.8 μL of 40 μg/mL h-PGDS to 4.753 mL of reaction buffer to give a total volume of 4.8 mL • 2. Preparation of Substrate Solution (PGH2): Add 0.375 mL of 0.1 mg/mL of PGH2 to 1.625 mL acetone. V. Enzyme Reaction: • 1. Add 60 μL of enzyme solution to compound well and positive control (without compound) in U-bottom polypropylene plate on ice. • 2. Add 60 μL of reaction buffer and 6.6 μL of 5% DMSO in reaction buffer into negative control wells in the plate. • 3. Add 6.6 μL of diluted compound in reaction buffer to the compound wells and mix. • 4. Add 6.6 μL of 5% DMSO in reaction buffer to the positive control well. • 5. Incubate the plate in ice for at least 30 min. • 6. Add 20 μL of substrate (PGH2) solution to compound, negative and positive control wells in the U-bottom 96 well plate on ice. • 7. Dry the plate in cold room for about 25-28 min. • 8. Pipette 45 μL of enzyme solution (above) into 96-wells with dried PGH2 and mix 3 times. Incubate on the ice for 1 min. • 9. Add 45 μL of FeCl2 solution into each wells and mix. • 10. Add 90 μL of MOX solution and mix. • 11. Incubate for 30 min at 60° C. • 12. Dilute the samples 2500× with EIA buffer. VI. EIA Assay • Perform the assay according to the procedure in EIA kit provided by Cayman. Total PGD2 levels (pg/mL) were determined in the samples by EIA kits (Caymen Chemical, Catalog No. 500151) Calculate Amount of PGD2 as Below • Calculated % Positive control according to the equation below; % Positive control=(Compound value−Negative control)/(Positive value−Negative control value)×100. […]

pIC50: −log10 of the molar value.

Sequence of human h-PGDS (O60760 whole entry): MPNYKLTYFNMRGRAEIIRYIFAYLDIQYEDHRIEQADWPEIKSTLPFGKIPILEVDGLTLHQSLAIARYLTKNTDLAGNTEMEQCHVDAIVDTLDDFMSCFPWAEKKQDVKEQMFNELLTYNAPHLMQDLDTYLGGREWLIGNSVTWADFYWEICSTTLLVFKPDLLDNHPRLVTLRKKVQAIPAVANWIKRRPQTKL

The pIC50 is the IC50 on a negative log10 scale, so that one unit is a factor of ten. A high value points to a small IC50. `CC1Cc2ccccc2N1NC(=O)c1cnc(-c2cccc(F)c2)nc1` (stereo not drawn) [Example 100, 2-(3-Fluoro-phenyl)-pyrimidine-5-carboxylic acid (2-methyl-2,3-dihydro-indol-1-yl)-amide]: the pIC50 is 8.40.
The figure for `O=C(Nn1ccc2cc(F)ccc21)c1cnc(-c2ccccc2)nc1` [Example 102, 2-Phenyl-pyrimidine-5-carboxylic acid (5-fluoro-indol-1-yl)-amide] is 8.52; for `O=C(NN1CCc2ccccc21)c1cnc(-c2ccccn2)nc1` [Example 103, 2-Pyridin-2-yl-pyrimidine-5-carboxylic acid (2,3-dihydro-indol-1-yl)-amide] it is 8.52; for `O=C(Nn1ccc2ccccc21)c1cnc(-c2ccccn2)nc1` [Example 104, 2-Pyridin-2-yl-pyrimidine-5-carboxylic acid indol-1-yl-amide] it is 8.35.
Turning to `O=C(Nn1ccc2ccccc21)c1cnc(-c2cccc(F)c2)nc1` [Example 105, 2-(3-Fluoro-phenyl)-pyrimidine-5-carboxylic acid indol-1-yl-amide], the pIC50 was 8.30.
In the case of `Cc1nc(-c2cccc(F)c2)ncc1C(=O)NN1CCc2ccccc21` [Example 106, 2-(3-Fluoro-phenyl)-4-methyl-pyrimidine-5-carboxylic acid (2,3-dihydro-indol-1-yl)-amide] it was 7.64; in that of `Cc1cc2ccccc2n1NC(=O)c1cnc(-c2cccc(F)c2)nc1` [Example 108, 2-(3-Fluoro-phenyl)-pyrimidine-5-carboxylic acid (2-methyl-indol-1-yl)-amide], 8.22.
On to `Cc1nc(-c2cccc(F)c2)ncc1C(=O)Nn1ccc2ccccc21` [Example 109, 2-(3-Fluoro-phenyl)-4-methyl-pyrimidine-5-carboxylic acid indol-1-ylamide], for which the pIC50 was 8.00. This pIC50 lies 0.22 log units lower than the previous one.
The figure for `Cc1nc(-c2ccccn2)ncc1C(=O)NN1CCc2ccccc21` [Example 110, 4-Methyl-2-pyridin-2-yl-pyrimidine-5-carboxylic acid (2,3-dihydro-indol-1-yl)-amide] is 8.52; for `Cc1nc(-c2ccccn2)ncc1C(=O)Nn1ccc2ccccc21` [Example 111, 4-Methyl-2-pyridin-2-yl-pyrimidine-5-carboxylic acid indol-1-ylamide] it is 8.30; for `CS(=O)(=O)c1ccc2ccn(NC(=O)c3cnc(-c4cccc(F)c4)nc3)c2c1` [Example 113, 2-(3-Fluoro-phenyl)-pyrimidine-5-carboxylic acid (6-methanesulfonyl-indol-1-yl)-amide] it is 8.10.
The figure for `O=C(Nn1ccc2ncccc21)c1cnc(-c2cccc(F)c2)nc1` [Example 118, 2-(3-Fluoro-phenyl)-pyrimidine-5-carboxylic acid pyrrolo[3,2-b]pyridin-1-ylamide] is 7.74; for `COc1ccccc1-c1ncc(C(=O)NN2CC(C)=NNC2=O)cn1` [Example 120, 2-(2-Methoxy-phenyl)-pyrimidine-5-carboxylic acid (6-methyl-3-oxo-2,5-dihydro-3H-[1,2,4]triazin-4-yl)-amide] it is 6.70.
As to `Cc1nc(-c2cccc(F)c2)ncc1C(=O)Nn1ccc2cccnc21` [Example 122, 2-(3-Fluoro-phenyl)-4-methyl-pyrimidine-5-carboxylic acid pyrrolo[2,3-b]pyridin-1-ylamide], the pIC50 is 7.92.
In turn, `Cc1nc(-c2ccccn2)ncc1C(=O)Nn1ccc2cc(F)ccc21` [Example 123, 4-Methyl-2-pyridin-2-yl-pyrimidine-5-carboxylic acid (5-fluoro-indol-1-yl)-amide] had a pIC50 of 7.77. This pIC50 and that of the molecule before are within 0.2 log units of each other.
In turn, `O=C(Nn1ccc2cc(F)ccc21)c1cnc(-c2ccccn2)nc1` [Example 124, 2-Pyridin-2-yl-pyrimidine-5-carboxylic acid (5-fluoro-indol-1-yl)-amide] gave a pIC50 of 7.74. The pIC50 values of the last two molecules are within 0.2 log units of each other.
The figure for `Cc1nc(-c2ccccn2)ncc1C(=O)Nn1ccc2ncccc21` [Example 127, 4-Methyl-2-pyridin-2-yl-pyrimidine-5-carboxylic acid pyrrolo[3,2-b]pyridin-1-ylamide] is 7.89; for `Cc1nc(-c2cccc(F)c2)ncc1C(=O)Nn1ccc2ccncc21` [Example 128, 2-(3-Fluoro-phenyl)-4-methyl-pyrimidine-5-carboxylic acid pyrrolo[2,3-c]pyridin-1-ylamide] it is 7.55; for `Cc1nc(-c2cccnc2)ncc1C(=O)Nn1ccc2ncccc21` [Example 130, 4-Methyl-2-pyridin-3-yl-pyrimidine-5-carboxylic acid pyrrolo[3,2-b]pyridin-1-ylamide] it is 7.85.
The molecule `Cc1nc(-c2cccc(F)c2)ncc1C(=O)Nn1ccc2cc(F)ccc21` [Example 132, 2-(3-Fluoro-phenyl)-4-methyl-pyrimidine-5-carboxylic acid (5-fluoro-indol-1-yl)-amide] showed a pIC50 of 7.72.
For `COc1ccc2c(ccn2NC(=O)c2cnc(-c3cccc(F)c3)nc2C)c1` [Example 133, 2-(3-Fluoro-phenyl)-4-methyl-pyrimidine-5-carboxylic acid (5-methoxy-indol-1-yl)-amide], the pIC50 is 8.22. Against the preceding molecule, the pIC50 is 0.50 log units higher.
In turn, `CC1=NNC(=O)N(NC(=O)c2cnc(-c3cccc(O)c3)nc2)C1` [Example 154, 2-(3-Hydroxy-phenyl)-pyrimidine-5-carboxylic acid (6-methyl-3-oxo-2,5-dihydro-3H-[1,2,4]triazin-4-yl)-amide] gave a pIC50 of 7.68.
`Cc1nc(-c2ncccn2)ncc1C(=O)Nn1cc(C)c2cc(F)ccc21` [Example 157, 4-Methyl-[2,2′]bipyrimidinyl-5-carboxylic acid (5-fluoro-3-methyl-indol-1-yl)-amide] showed a pIC50 of 8.35.
The molecule `Cc1nc(-c2cccc(F)c2)ncc1C(=O)Nn1cc(C(N)=O)c2cc(F)ccc21` [Example 162, 5-Fluoro-1-{[2-(3-fluoro-phenyl)-4-methyl-pyrimidine-5-carbonyl]-amino}-1H-indole-3-carboxylic acid amide] showed a pIC50 of 8.10.
In turn, `Cc1nc(-c2cccc(F)c2)ncc1C(=O)Nn1cc(C(C)(C)C(=O)O)c2cc(F)ccc21` [Example 164, 2-(5-Fluoro-1-{[2-(3-fluoro-phenyl)-4-methyl-pyrimidine-5-carbonyl]-amino}-1H-indol-3-yl)-2-methyl-propionic acid] gave a pIC50 of 8.15.
As for `Cc1nc(-c2nccs2)ncc1C(=O)Nn1cc(CCC(C)(C)O)c2cc(F)ccc21` [Example 172, 4-Methyl-2-thiazol-2-yl-pyrimidine-5-carboxylic acid [5-fluoro-3-(3-hydroxy-3-methyl-butyl)-indol-1-yl]-amide], the pIC50 is 8.30.
Take `CCc1cn(NC(=O)c2cnc(-c3ncccn3)nc2C)c2ccc(C(F)(F)F)cc12` [Example 176, 4-Methyl-[2,2′]bipyrimidinyl-5-carboxylic acid (3-ethyl-5-trifluoromethyl-indol-1-yl)-amide]: the pIC50 is 8.10. Against the preceding molecule, the pIC50 is 0.20 log units lower.
